The values that follow come from patent US9839642B2, “Beta-tetrazolyl-propionic acids as metallo-beta-lactamase inhibitors” (priority 2014, dated 2017).

The target of one test is IMP-1 (Serratia marcescens, UniProt P52699). The experiment in a line: Enzyme activity: determination of IC50, fluorescence assay with CCF2-FA substrate. The settings on record: IMP-1 enzyme 2 pM, CCF2-FA 1.25 μM, 2 hours at 25° C.; read-out: IMP1 IC50. The format is biochemical. Put shortly:
(§1)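 In pH 7 phosphate buffer (100 mM) with 10 μM ZnSO4 and 0.005% Tween-20, CCF2-FA substrate (1.25 μM final) was hydrolysed for 2 h at 25 °C by NDM-1, IMP-1 or VIM-1 at 1, 2 or 30 pM in the presence of inhibitor at 20–0.00063 μM. Emission 460 nm/excitation 405 nm; 4-parameter curve fit gave IC50.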

The target of the next test is NDM-1 (Klebsiella pneumoniae, UniProt C7C422). The description is as above. The format is biochemical. The settings on record: CCF2-FA 1.25 μM, 2 hours at 25° C. Put shortly: as §1
NDM-1, sequence (C7C422 29-270, looked up, species assumed): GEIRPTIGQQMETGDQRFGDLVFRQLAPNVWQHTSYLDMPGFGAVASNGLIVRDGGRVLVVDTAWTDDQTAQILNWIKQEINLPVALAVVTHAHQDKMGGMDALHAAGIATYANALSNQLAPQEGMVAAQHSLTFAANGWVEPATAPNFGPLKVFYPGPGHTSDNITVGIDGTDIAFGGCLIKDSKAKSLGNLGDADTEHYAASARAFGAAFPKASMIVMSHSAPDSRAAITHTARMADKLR
Another test has as its target VIM-1 (Pseudomonas aeruginosa, UniProt A0A0F7KYQ8). The test is described as above. The test is classed as biochemical. The following applies: VIM-1 enzyme 30 pM, CCF2-FA 1.25 μM, 2 hours at 25° C.; read-out: VIM1 IC50. Put shortly:
as §1

In test [1] the test system is Escherichia coli expressing NDM-1 (CLB30016). Briefly: Antibiotic potentiation activity: synergistic concentration (MITC95) with imipenem, growth by OD600. The format is cell-based. The following applies: E. coli CLB30016 (NDM-1), 95% inhibition of growth. Put shortly:
(§2)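 MITC95 = lowest inhibitor concentration giving 95% growth inhibition, read by absorbance after 22–24 h at 35° C. Compound range 200 μM to 0.195 μM, imipenem fixed at 1 or 4 μg/ml, bacteria in 1.1×CAMHB from saline suspension diluted 1:100.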

Test [2] deals with Klebsiella pneumoniae expressing VIM-1 (IHMA599644). Described as above. The format is cell-based. The following applies: K. pneumoniae IHMA599644 (VIM-1), 95% inhibition of growth. Put shortly:
as §2

Test [3] has as its system Serratia marcescens expressing IMP-1 (CL5741). The test is described as above. The format is cell-based. The following applies: S. marcescens CL5741 (IMP-1), 95% inhibition of growth. Put shortly: as §2
Setting [4] is: NDM-1 enzyme 1 pM, read-out: NDM1 IC50.

Like-named read-outs stand apart in the source and are kept apart here.

IMP-1, sequence (P52699 19-246, looked up, species assumed): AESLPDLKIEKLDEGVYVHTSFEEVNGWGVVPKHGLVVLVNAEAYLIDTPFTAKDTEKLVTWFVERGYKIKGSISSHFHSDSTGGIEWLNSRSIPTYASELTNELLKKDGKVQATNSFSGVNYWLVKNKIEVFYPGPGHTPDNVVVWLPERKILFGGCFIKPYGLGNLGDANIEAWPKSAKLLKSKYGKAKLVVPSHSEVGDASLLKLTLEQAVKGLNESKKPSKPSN

As for `CCC[C@H](C(=O)O)[C@H](Cc1cccc2nsnc12)c1nnn[nH]1` [Example 272, (2S)-2-[(1S)-2-(2,1,3-benzothiadiazol-4-yl)-1-(1H-tetrazol-5-yl)ethyl]pentanoic acid], the results for the half-inhibitory concentration (IC50) at IMP-1, on NDM-1 (setting [4]) and on VIM-1 were 600 nM, 12 nM and 0.35 nM, respectively. Further, the “NDM1 EC30016 MITC95” value in test [1] amounted to 4.7 µM. In addition, the “VIM1 KP599644 MITC95” value in test [2] worked out at 9.4 µM. Further, the “IMP1 SM5741 MITC95” value in test [3] was determined as 38 µM.

Consider `CCC[C@H](C(=O)O)[C@H](Cc1ccc2nonc2c1)c1nnn[nH]1` [Example 273, (2S)-2-[(1S)-2-(2,1,3-benzoxadiazol-5-yl)-1-(1H-tetrazol-5-yl)ethyl]pentanoic acid], for which the half-inhibitory concentration (IC50) (in general, the midpoint of a concentration-inhibition curve) on IMP-1 turned out to be 2200 nM; at NDM-1 (setting [4]) it was 260 nM; at VIM-1 it was 1.9 nM. The “NDM1 EC30016 MITC95” value in test [1] stood at 12.5 µM. Besides, in test [2], the “VIM1 KP599644 MITC95” value came to 9.4 µM. In addition, the “IMP1 SM5741 MITC95” value in test [3] came out at 150 µM.

Take `CCC[C@H](C(=O)O)[C@H](Cc1ccc(C(=O)N2CCNCC2)cc1)c1nnn[nH]1` [Example 275, (2S)-2-[(1S)-2-[4-(piperazin-1-ylcarbonyl)phenyl]-1-(1H-tetrazol-5-yl)ethyl]pentanoic acid]: the values for the IC50 at IMP-1, on NDM-1 (setting [4]) and on VIM-1 were 520 nM, 39 nM and 41 nM, respectively. The “NDM1 EC30016 MITC95” value in test [1] is 9.4 µM. In test [2], the “VIM1 KP599644 MITC95” value came to 38 µM. The “IMP1 SM5741 MITC95” value in test [3] was found to be 25 µM.

For the compound `CCC[C@H](C(=O)O)[C@H](Cc1ccc(C(=O)NCCN)cc1)c1nnn[nH]1` [Example 276, (2S)-2-[(1S)-2-{4-[(2-aminoethyl)carbamoyl]phenyl}-1-(1H-tetrazol-5-yl)ethyl]pentanoic acid], the IC50 on IMP-1 was determined as 5400 nM; at NDM-1 (setting [4]) it was 1100 nM; at VIM-1, 8.4 nM. Moreover, in test [1], the “NDM1 EC30016 MITC95” value was 12.5 µM. In addition, the “VIM1 KP599644 MITC95” value in test [2] amounted to 25 µM. In addition, the “IMP1 SM5741 MITC95” value in test [3] is 100 µM.

Consider `CCC[C@H](C(=O)O)[C@H](Cc1ccc(C(=O)N(C)C)cc1)c1nnn[nH]1` [Example 277, (2S)-2-[(1S)-2-[4-(dimethylcarbamoyl)phenyl]-1-(1H-tetrazol-5-yl)ethyl]pentanoic acid], for which the IC50 came to 130 nM on IMP-1, 10 nM on NDM-1 (setting [4]) and 13 nM on VIM-1. In addition, in test [1], the “NDM1 EC30016 MITC95” value is 25 µM. Moreover, the “VIM1 KP599644 MITC95” value in test [2] stood at 75 µM. The “IMP1 SM5741 MITC95” value in test [3] came out at 12.5 µM.

Consider `CCC[C@H](C(=O)O)[C@H](Cc1ccc(C(=O)N2CCC(N)CC2)cc1)c1nnn[nH]1` [Example 278, (2S)-2-[(1S)-2-{4-[(4-aminopiperidin-1-yl)carbonyl]phenyl}-1-(1H-tetrazol-5-yl)ethyl]pentanoic acid], for which the half-maximal inhibitory concentration (IC50) was 200 nM on IMP-1, 10 nM on NDM-1 (setting [4]) and 120 nM at VIM-1. Moreover, the “NDM1 EC30016 MITC95” value in test [1] turned out to be 12.5 µM. In addition, the “VIM1 KP599644 MITC95” value in test [2] is 50 µM. The “IMP1 SM5741 MITC95” value in test [3] worked out at 6.2 µM.

Consider `CCC[C@H](C(=O)O)[C@H](Cc1ccc(C(=O)NC)cc1)c1nnn[nH]1` [Example 279, (2S)-2-[(1S)-2-[4-(methylcarbamoyl)phenyl]-1-(1H-tetrazol-5-yl)ethyl]pentanoic acid], for which the results for the half-inhibitory concentration (IC50) at IMP-1, on NDM-1 (setting [4]) and on VIM-1 were 9500 nM, 1000 nM and 100 nM, respectively. Moreover, in test [1], the “NDM1 EC30016 MITC95” value worked out at 150 µM. Also, the “VIM1 KP599644 MITC95” value in test [2] was above 200 µM. In test [3], the “IMP1 SM5741 MITC95” value is above 200 µM.

Consider `CCC[C@H](C(=O)O)[C@H](Cc1ccc(C(=O)NCCO)cc1)c1nnn[nH]1` [Example 280, (2S)-2-[(1S)-2-{4-[(2-hydroxyethyl)carbamoyl]phenyl}-1-(1H-tetrazol-5-yl)ethyl]pentanoic acid], for which the values for the IC50 at IMP-1, on NDM-1 (setting [4]) and on VIM-1 were 880 nM, 140 nM and 2.7 nM, respectively. Further, the “NDM1 EC30016 MITC95” value in test [1] was 18.8 µM. Besides, in test [2], the “VIM1 KP599644 MITC95” value was 25 µM. Further, the “IMP1 SM5741 MITC95” value in test [3] came out at 25 µM.

Take `CCC[C@H](C(=O)O)[C@H](Cc1ccc(C(=O)NC2CC2)cc1)c1nnn[nH]1` [Example 281, (2S)-2-[(1S)-2-[4-(cyclopropylcarbamoyl)phenyl]-1-(1H-tetrazol-5-yl)ethyl]pentanoic acid]: the results for the IC50 on IMP-1, at NDM-1 (setting [4]) and on VIM-1 were 5300 nM, 770 nM and 86 nM, respectively. In test [1], the “NDM1 EC30016 MITC95” value was found to be 100 µM. Also, in test [2], the “VIM1 KP599644 MITC95” value turned out to be 200 µM. The “IMP1 SM5741 MITC95” value in test [3] was 200 µM.

As for `CCC[C@H](C(=O)O)[C@H](Cc1ccc(C(=O)NCC2CC2)cc1)c1nnn[nH]1` [Example 282, (2S)-2-[(1S)-2-{4-[(cyclopropylmethyl)carbamoyl]phenyl}-1-(1H-tetrazol-5-yl)ethyl]pentanoic acid], the figures for the half-maximal inhibitory concentration (IC50) on IMP-1, on NDM-1 (setting [4]) and at VIM-1 were 730 nM, 98 nM and 19 nM, respectively. Besides, the “NDM1 EC30016 MITC95” value in test [1] was found to be 18.8 µM. Besides, the “VIM1 KP599644 MITC95” value in test [2] came to 50 µM. In addition, the “IMP1 SM5741 MITC95” value in test [3] was 50 µM.

On to `CCC[C@H](C(=O)O)[C@H](Cc1ccc(C(=O)O)cc1)c1nn[nH]n1` [Example 283, 4-((2S,3S)-3-carboxy-2-(2H-tetrazol-5-yl)hexyl)benzoic acid], for which the 50% inhibitory concentration (IC50) amounted to 850 nM at IMP-1, 50 nM at NDM-1 (setting [4]) and 17 nM at VIM-1. Besides, in test [1], the “NDM1 EC30016 MITC95” value came to 100 µM. Moreover, the “VIM1 KP599644 MITC95” value in test [2] came to 200 µM. Moreover, in test [3], the “IMP1 SM5741 MITC95” value was 38 µM.

As for `CCC[C@H](C(=O)O)[C@H](Cc1nnc(N)s1)c1nnn[nH]1` [Example 284, (S)-2-((S)-2-(5-amino-1,3,4-thiadiazol-2-yl)-1-(1H-tetrazol-5-yl)ethyl)pentanoic acid], the IC50 on IMP-1 was above 20000 nM; at NDM-1 (setting [4]), 13000 nM; at VIM-1 it was 340 nM. The “NDM1 EC30016 MITC95” value in test [1] was determined as 25 µM. The “VIM1 KP599644 MITC95” value in test [2] was 38 µM. In addition, the “IMP1 SM5741 MITC95” value in test [3] is above 200 µM.

As to `CCC[C@H](C(=O)O)[C@H](Cc1cnc(SC)nc1)c1nnn[nH]1` [Example 285, (S)-2-((S)-2-(2-(methylthio)pyrimidin-5-yl)-1-(1H-tetrazol-5-yl)ethyl)pentanoic acid], the IC50 came to 14000 nM on IMP-1, 190 nM at NDM-1 (setting [4]) and 3.3 nM at VIM-1. Also, the “NDM1 EC30016 MITC95” value in test [1] came out at 25 µM. For the same compound, in test [2], the “VIM1 KP599644 MITC95” value amounted to 25 µM. In addition, the “IMP1 SM5741 MITC95” value in test [3] is above 200 µM.

With `CCC[C@H](C(=O)O)[C@H](Cc1cnc(S(C)(=O)=O)nc1)c1nnn[nH]1` [Example 286, (S)-2-((S)-2-(2-(methylsulfonyl)pyrimidin-5-yl)-1-(1H-tetrazol-5-yl)ethyl)pentanoic acid], the IC50 at IMP-1 was above 20000 nM; at NDM-1 (setting [4]) it was 4600 nM; at VIM-1, 37 nM. In test [1], the “NDM1 EC30016 MITC95” value was 25 µM. The “VIM1 KP599644 MITC95” value in test [2] turned out to be 18.8 µM. Moreover, in test [3], the “IMP1 SM5741 MITC95” value is above 200 µM.

Take `CCC[C@H](C(=O)O)[C@H](Cc1cnc(N2CCOCC2)nc1)c1nnn[nH]1` [Example 287, (S)-2-((S)-2-(2-morpholinopyrimidin-5-yl)-1-(1H-tetrazol-5-yl)ethyl)pentanoic acid]: the figures for the IC50 on IMP-1, at NDM-1 (setting [4]) and at VIM-1 were 9200 nM, 100 nM and 5 nM, respectively. In test [1], the “NDM1 EC30016 MITC95” value came out at 25 µM. For the same compound, in test [2], the “VIM1 KP599644 MITC95” value worked out at 50 µM. The “IMP1 SM5741 MITC95” value in test [3] amounted to 75 µM.

As for `CCC[C@H](C(=O)O)[C@H](Cc1cnc(N2CCNCC2)nc1)c1nnn[nH]1` [Example 288, (S)-2-((S)-2-(2-(piperazin-1-yl)pyrimidin-5-yl)-1-(1H-tetrazol-5-yl)ethyl)pentanoic acid], the IC50 at IMP-1 is above 20000 nM; against NDM-1 (NDM1 IC50, NDM-1 enzyme 1 pM), 520 nM; at VIM-1 it was 4.1 nM. In test [1], the “NDM1 EC30016 MITC95” value came to 12.5 µM. The “VIM1 KP599644 MITC95” value in test [2] worked out at 12.5 µM. Also, the “IMP1 SM5741 MITC95” value in test [3] came to 150 µM.

As for `CCC[C@H](C(=O)O)[C@H](Cc1cnc(OC2CCNCC2)nc1)c1nnn[nH]1` [Example 289, (S)-2-((S)-2-(2-(piperidin-4-yloxy)pyrimidin-5-yl)-1-(1H-tetrazol-5-yl)ethyl)pentanoic acid], the figures for the half-maximal inhibitory concentration (IC50) on IMP-1, at NDM-1 (setting [4]) and on VIM-1 were above 20000 nM, 3100 nM and 6.8 nM, respectively. Further, in test [1], the “NDM1 EC30016 MITC95” value amounted to 25 µM. The “VIM1 KP599644 MITC95” value in test [2] was found to be 38 µM. Besides, in test [3], the “IMP1 SM5741 MITC95” value is above 200 µM.
